Where “and” joins values, the source holds several entries; their conditions need not be identical. Equal entries are not always repeated. Where two headings read alike, the source gives them in different places. *1 amine or outer side, *2 acyl side, *3 side chain or, on linkers, in order; H or OH if unused. Where a SMILES comes first, the peptide text is derived from it. [ ]: non-standard residue; d: D form. The star is where a group is joined. X1 = CO[C@@H](C1CCCN1[*:1])[C@@H](C)C(=O)[*:2]; Dil = CC[C@H](C)[C@H](NC)[C@@H](CC(=O)O)OC; PABC = O=C(OCc1ccc(N[*:1])cc1)[*:2]; Phosphonoacetyl = O=C(CP(=O)(O)O)*; X2 = C[C@@H](N*)[C@@H](O)c1ccccc1; NMeV = CN[C@H](C(=O)O)C(C)C
Experiments:
[1] = test system: NCI-H292 cells; assay: WST-1 cell viability, NCI-H292 lung cancer cells; type: cell-based; settings: for IC50: WST-1 (Table 1), read-out: Absolute IC50; for SI = HME-1 IC50/cancer IC50: NCI-H292 (NSCLC) vs HME-1 (Table 3)
Experimental: (§1) All commercial cell lines were purchased at ATCC (LGC Standards SARL, France). Cells were seeded in 96-well plates according to their optimal seeding density, varying between 5.000 and 10.000 cells/well. After attachment overnight, 10-point serial titrations (1:5) were prepared in their equivalent complete media as recommended by ATCC, starting from the 10 mM stock solutions. For doxorubicin comprising prodrugs dilutions started from 100 μM, while for the parent compound doxorubicin dilutions started at 10 μM. […] Seventy-two hours later, compounds were removed together with the supernatants and cells were washed once with PBS to remove excess drugs.
(§2) The WST-1 assay for cell proliferation and viability (Roche, Switzerland) was performed according to manufacturer's protocol. Absorbances were measured at 4 hrs using a Perkin Elmer Ensight multiplate reader, equipped with Kaleido 2.0 software (Perkin Elmer, USA). Cell viability was expressed as a percentage compared to non-treated cells. Absolute IC50 values were extrapolated from a non-linear fitting following the Sigmoidal-4PL regression method using Graphpad Prism 7.0. Likewise, maximal efficacy was determined as 100% minus the cell viability determined when cells are incubated in the presence of a compound. For instance, if 20% of the cells survive incubation in the presence of a compound, then the maximal efficacy of that compound is 100%-20%=80%.
(§3) Selectivity indices (SI) were defined as the ratio of the concentration of drug required to kill 50% of the cells in normal (control, non-cancer) cells, divided by the concentration required to exert the same efficacy in tumor cells: SI=IC50 (control cell)/IC50 (cancer cell), or SI=^HME-1IC50/cancer IC50.

[2] = test system: LS 174T cells; assay: WST-1 cell viability, LS 174T colorectal cancer cells; type: cell-based; settings: for IC50: WST-1 (Table 1), read-out: Absolute IC50; for SI = HME-1 IC50/cancer IC50: LS 174T (CrC) vs HME-1 (Table 3)
Experimental: as §1, §2, §3

[3] = test system: A2780 cells; assay: WST-1 cell viability, A2780 ovarian cancer cells; type: cell-based; settings: for SI = HME-1 IC50/cancer IC50: A2780 (OvC) vs HME-1 (Table 3); for IC50: WST-1 (Table 1), read-out: Absolute IC50
Experimental: as §1, §2, §3

[4] = test system: cancer cell lines; assay: In vitro potency and selectivity across a variety of cancer indications (WST-1); type: cell-based; settings: 72 hrs
Experimental: as §1
as §2, with “For instance, if 20% of the cells survive incubation in the presence of a compound, then the maximal efficacy of that compound is 100%-20%=80%.” left out

[5] = test system: LS-174T colorectal tumor cells xenografted in Nude NMRI mice; assay: In vivo activity on LS-174T colorectal cancer xenograft; design: species or system mouse; settings: twice per week
Experimental: The in vivo efficacy of PhAc-ALLP-Dox was tested in a mouse model of colorectal cancer. LS-174T colorectal tumor cells were xenografted in Nude NMRI mice. In total, 30 adult (9-10 weeks old) nude female NMRI mice (Janvier, France) were subjected to subcutaneous (SC) tumor cell grafting in the right flank. In total, 2×10^6 LS-174T cells resuspended in PBS were injected in 200 uL final volume. As soon as the tumors were palpable and reached the volume of 200 mm3 the treatment was started. […]
Treatments were performed twice per week for a total of four tail vein administrations/injections (on days 1, 4, 7 and 10). […] During the experiment, tumor volume was measured two times a week and was assessed three-dimensionally with a digital caliper (Mitutoyo, Illinois) using the following formula: […]
Tumor growth inhibition (TGI) expressed as percentage vs control was calculated as follows: % TGI=(1−{Tt/T0/Ct/C0}/1−{C0/Ct})×100 where Tt and T0 are the individual tumor volume of treated mouse X at times t and 0 respectively, Ct and C0 are the mean tumor volume of the control group at times t and 0 respectively.

[6] = test system: hiPSC-derived astrocytes (iAstro); assay: WST-1 cell viability, hiPSC-derived astrocytes (iAstro); type: cell-based, human; settings: iAstro normal astrocytes, 72 hrs; for IC50: WST-1 (Table 4), read-out: Absolute IC50; for Maximal efficacy: WST-1 (Table 5)
Experimental: as §1, §2, §3
hiPSC-derived astrocytes were purchased from Tempo Biosciences (iAstro™). Prior to use, six-well plates were coated with 1 ml GFR Matrigel (1:100˜0.1 mg/ml, Corning #356231) and allowed to polymerize at 37° C. overnight. Three days before assaying, cells were defrosted and seeded onto the GFR Matrigel in iAstro medium, and allowed to recover from defrosting for 48 hrs. The recovery was aided using RevitaCell™ Supplement during the first 24 hrs. After morphological inspection, cells were transferred to 96-well plates and 4-well microscopy vessels (Millipore), coated with Poly-L-lysine (50 μg/ml, P2533, Sigma Aldrich) and mouse laminin (4 ng/ml, L2020, Sigma Aldrich), using StemPro Accutase reagent (Invitrogen). Following overnight recovery, iAstro's were exposed to the same treatment protocol described above.

[7] = test system: A2058 melanoma cells subcutaneously implanted in nude NMRI mice; assay: In vivo activity on A2058 melanoma xenograft; design: species or system mouse
Experimental: The in vivo efficacy of PhAc-ALLP-PABC-MMAE was tested in a mouse melanoma model. A2058 melanoma cells were subcutaneously (SC) implanted in nude NMRI mice. In total, 36 adult (9-10 weeks old) nude female NMRI mice (Janvier, France) were subjected to SC tumor cell grafting in the right flank. In total, 3×10^6 A2058 cells resuspended in PBS plus Matrigel (1:1) were injected in 200 uL final volume. As soon as the tumors were palpable and reached the volume of 200 mm3 the treatment was started. At day zero, mice were randomly divided into 4 groups, based on the tumor volume, in order to have the following experimental sub-cohorts: • control group receiving the vehicle (PBS pH7.2) with a dose of 5 ml/kg, intravenously (iv), once per week (QW); • PhAc-ALLP-PABC-MMAE (2 mg/kg iv, QW); • PhAc-ALLP-PABC-MMAE (4 mg/kg iv, QW); • MMAE (0.9 mg/kg iv, QW).
Treatments were performed once per week for a total of four tail vein administrations/injections (on days 1, 7, 14 and 21). Two extra weeks of observation followed the active treatment phase. During the experiment, tumor volume was measured two times a week and was assessed three-dimensionally with a digital caliper (Mitutoyo, Illinois) using the following formula:
V=4/3π×[(d/2)^2×(D/2)], where d is the minor tumor axis and D is the major tumor axis.

With `COc1cccc2c1C(=O)c1c(O)c3c(c(O)c1C2=O)C[C@@](O)(C(=O)CO)C[C@@H]3O[C@H]1C[C@H](N)[C@H](O)[C@H](C)O1` [Doxorubicin, reference compound] the IC50 ([1]; Homo sapiens, NCI-H292 (NSCLC), 72 hrs) was 30 nM, the cytotoxicity at 100 µM ([1]; Homo sapiens, NCI-H292 (NSCLC), 72 hrs, WST-1 (Table 2), read-out: Maximal efficacy, cytotoxicity (%) at 100 μM) was 90.4% and the “SI = HME-1 IC50/cancer IC50” value [1] was 1.62. For the same compound, the IC50 ([2]; Homo sapiens, LS174T, LS 174T (CrC), 72 hrs) was 10 nM, the cytotoxicity at 100 µM ([2]; Homo sapiens, LS174T, LS 174T (CrC), 72 hrs, WST-1 (Table 2), read-out: Maximal efficacy, cytotoxicity (%) at 100 μM) was 93.7% and the “SI = HME-1 IC50/cancer IC50” value [2] was 4.47. The “SI = HME-1 IC50/cancer IC50” value [3] was 9.15, the IC50 ([3]; Homo sapiens, A2780 (OvC), 72 hrs) was under 10 nM and the cytotoxicity at 100 µM ([3]; Homo sapiens, A2780 (OvC), 72 hrs, WST-1 (Table 2), read-out: Maximal efficacy, cytotoxicity (%) at 100 μM) was 96%.

For `COc1cccc2c1C(=O)c1c(O)c3c(c(O)c1C2=O)C[C@@](O)(C(=O)CO)C[C@@H]3O[C@H]1C[C@H](NC(=O)[C@@H]2CCCN2C(=O)[C@H](CC(C)C)NC(=O)[C@H](CC(C)C)NC(=O)[C@H](C)NC(=O)CP(=O)(O)O)[C@H](O)[C@H](C)O1` [PhAc-ALLP-Dox, PhAc-ALLP-Doxorubicin] (HELM PEPTIDE1{[O=C(CP(=O)(O)O)[*:2]].A.L.L.P.[COc1cccc2c1C(=O)c1c(O)c3c(c(O)c1C2=O)C[C@@](O)(C(=O)CO)C[C@@H]3O[C@H]1C[C@H](N[*:1])[C@H](O)[C@H](C)O1]}$$$$V2.0), the “Potency range against cancer cells” value [4] was “within the micromolar range”, the “SI = HME-1 IC50/cancer IC50” value [1] was 6.30 and the IC50 ([1]; NCI-H292 (NSCLC), 72 hrs) was 5860 nM. The “Maximal efficacy, cytotoxicity (%) at 100 μM” value ([1]; NCI-H292 (NSCLC), 72 hrs, WST-1 (Table 2)) was 55.15%, the “SI = HME-1 IC50/cancer IC50” value [2] was 1514.9 and the IC50 ([2]; LS 174T (CrC), 72 hrs) was 20 nM. For the same compound, the “Maximal efficacy, cytotoxicity (%) at 100 μM” value ([2]; LS 174T (CrC), 72 hrs, WST-1 (Table 2)) was 54.86%, the Tolerability ([5]; 10 mg/kg and 30 mg/kg iv) was “mice did tolerate both doses” and the “Tumor volume compared to the untreated control group” value ([5]; 30 mg/kg iv, four tail vein administrations) was “significantly reduced the tumor volume”. For the same compound, the IC50 [6] was 20300 nM, the Maximal efficacy [6] was 68.5% and the “SI = HME-1 IC50/cancer IC50” value [3] was 701.33. For the same compound, the IC50 ([3]; A2780 (OvC), 72 hrs) was 50 nM and the “Maximal efficacy, cytotoxicity (%) at 100 μM” value ([3]; A2780 (OvC), 72 hrs, WST-1 (Table 2)) was 90.59%.

With `CC[C@H](C)[C@@H]([C@@H](CC(=O)N1CCCC1[C@H](OC)[C@@H](C)C(=O)N[C@H](C)[C@@H](O)c1ccccc1)OC)N(C)C(=O)[C@@H](NC(=O)[C@H](C(C)C)N(C)C(=O)OCc1ccc(NC(=O)[C@@H]2CCCN2C(=O)[C@H](CC(C)C)NC(=O)[C@H](CC(C)C)NC(=O)[C@H](C)NC(=O)CP(=O)(O)O)cc1)C(C)C` (stereo partly drawn) [PhAc-ALLP-PABC-MMAE] (Phosphonoacetyl-ALLP[PABC][NMeV]V[Dil][X1]-X2) the “Tumor volume compared to the untreated control group” value ([7]; 2 mg/kg iv, once per week, four administrations) was “importantly reduced the tumor volume”, the Response ([7]; 2 mg/kg iv, once per week, observed until day 34) was “Complete response” and the “Relapse and macroscopical toxicity” value ([7]; 2 mg/kg iv, once per week, until day 34) was “without any hint of relapse or macroscopical sign of toxicity”. For the same compound, the Tumor growth ([7]; higher concentration (4 mg/kg iv, once per week)) was “important reduction of tumor growth”, the “Reduction of body weight” value ([7]; higher concentration (4 mg/kg iv, once per week), sacrificed at day 21) was over 20% and the IC50 [6] was over 500 nM. For the same compound, the Maximal efficacy [6] was 2% and 1.7%.

Source: US20240299562A1 (priority 2020, published 2024)
